Test results published in US6951882B2, “Substituted 4-phenyl-[1,3]-dioxanes” (Janssen Pharmaceutica N.V., priority 2002, dated 2005).

Experiments:
orexin-2 receptor = molecular target: T1, orexin-2 receptor (Homo sapiens, UniProt O43614); assay: Orexin radioligand binding assay (125I-orexin A, adherent recombinant cells); details: 125I-orexin A displacement, recombinant CHO-K1 or HEK-293 cells expressing the orexin receptor
T1 construct: expressed in transfected cells; host or cells: CHO-K1 (preferred) or HEK-293 recombinant clones
T1 sequence (O43614 1-444): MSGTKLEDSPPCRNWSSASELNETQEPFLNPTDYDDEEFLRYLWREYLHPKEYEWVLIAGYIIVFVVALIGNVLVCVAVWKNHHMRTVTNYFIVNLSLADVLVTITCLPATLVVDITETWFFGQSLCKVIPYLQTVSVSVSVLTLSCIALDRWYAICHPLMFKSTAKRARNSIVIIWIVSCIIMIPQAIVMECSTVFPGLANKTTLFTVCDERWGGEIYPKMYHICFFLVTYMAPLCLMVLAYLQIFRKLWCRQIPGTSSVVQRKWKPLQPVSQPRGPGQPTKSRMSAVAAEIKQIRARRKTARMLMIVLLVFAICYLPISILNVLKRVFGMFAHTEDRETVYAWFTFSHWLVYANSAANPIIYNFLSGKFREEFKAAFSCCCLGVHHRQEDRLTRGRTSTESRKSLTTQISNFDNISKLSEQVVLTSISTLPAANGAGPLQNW
Protocol: The reaction was quenched with 100 μL of 10% w/v bovine serum albumin, then the products were pre-purified using Waters Maxi-Clean C18 cartridges (Alltech, San Jose, Calif.). The mobile phase for the reverse phase separations (pre-purification and gradient HPLC) was 0.1% TFA, and the eluent was 0.1% TFA in acetonitrile. After removing the acetonitrile from the Maxi-Clean cartridge eluent by lyophilization, the labeled compound was further purified by gradient HPLC using a Vydac (Hesperia, Calif.) analytical C18 HPLC column. A gradient of 2% acetonitrile/min was used and fractions were collected every 0.75 min at a flow rate of 1.5 mL/min.
Radioligand binding assays were performed in opaque, white 96-well tissue culture plates pretreated with poly-D-lysine (Bio-Coat plates, Becton Dickinson, Franklin Lakes, N.J.). Cells expressing the orexin receptor were seeded at 30,000 cells/well in 100 μL/well Ham's F12 with 10% heat inactivated fetal bovine serum, penicillin/streptomycin and 800 mg/L G418. […] In preparation for the binding assay, the cell culture medium was aspirated away, and the cells were gently washed with 100 μL-well binding buffer (Dulbecco's phosphate buffered saline containing 0.1% w/v bovine serum albumin). […] The assay was terminated by aspirating the liquid from the wells, washing the wells with iced binding buffer, aspirating the wells dry, adding 50 μL/well scintillation cocktail (MicroScint 40, Packard Biosciences, Meriden Conn.), and counting the plate(s) in a Packard TopCount scintillation counter. […] Data were analyzed using GraphPad Prizm software to calculate Ki values.

[1] = molecular target: T2, orexin receptors in PFSK-1 cells (Homo sapiens, UniProt O43614); assay: Intracellular calcium ion measurement (FLIPR, Fluo-3 AM) in PFSK-1 cells, antagonism of orexin agonist; type: cell-based
T2 construct: host or cells: PFSK-1
T2 sequence (O43614 1-444): T1 sequence (O43614 1-444)
Protocol: PFSK-1 cells were obtained from the American Type Culture Collection (CRL-2060; Manassas, Va.) and cultured as described by Fults et al. (J. Neuropathology Exp. Neurology, 1992, 51 (3):272-280). Cells were grown on 10 or 15 cm tissue culture dishes (Corning Inc., Corning, N.Y.) in RPMI medium 1640 containing 25 mM Hepes and L-glutamine (Gibco/InVitrogen, Carlsbad, Calif.) supplemented with 10% fetal bovine serum (HyClone, Logan, Utah), 50 u/mL penicillin G, and 50 u/mL streptomycin sulphate. Cells grown on 10 dishes were grown in 10 mL complete medium, and cells grown on 15 cm dishes were grown in 30 mL complete medium. Cells were passed every 3 to 5 days at a 1:5 dilution by aspirating away the medium, adding 2 mL/dish Gibco/Invitrogen Trypsin-EDTA solution, aspirating away the solution, incubating at room temperature 5 min, and dispersing the cells into fresh plates using fresh complete medium. Cells were then maintained in incubators set to maintain 37° C. and 5% CO2.
Agonist binding of orexin receptors elevates the intracellular free calcium ion concentration through the activation of a Gq protein and the opening of voltage-activated plasmalemmal calcium channels (see: A. N. Van Den Pol et al. J. Neurosci., 1998, 18(19):7962-7971). This effect was monitored using the fluorescent Ca^++ indicator Fluo-3 AM (TefLabs, Austin, Tex.) and the Molecular Devices (Sunnyvale, Calif.) FLIPR instrument.
PFSK-1 cells were removed from confluent tissue culture dishes with trypsin-EDTA as described above and plated in 96-well Packard Viewplates (Meriden, Conn.) at 50,000 cells/well in 100 μL/well complete medium. The next day the cells, which adhered to the Viewplates and grew to confluency, were loaded with the fluorescent dye. […] Test compounds were added to the wells in an isotonic, pH-neutral vehicle, such as Dulbecco's phosphate-buffered saline, and changes in intracellular calcium concentrations were measured using the FLIPR instrument.
The compounds were delivered to the test wells, and the compounds and the cells were incubated to allow binding. […] The control column for the antagonist screen included positive and negative controls to indicate the fluorescence of a full agonist response and the baseline.
Antagonism was analyzed by calculating KB and pKB values for compounds found to inhibit increases in intracellular Ca^++ concentrations of PFSK-1 cells. This was accomplished by determining the EC50 of orexin B and comparing the IC50 values determined from dilutions of antagonist compound(s), all on a single 96-well Viewplate of PFSK-1 cells loaded with Fluo-3 AM. […] The KB is then determined after Y.-C. […]

Ki (orexin-2 receptor)	Kb [1]	SMILES
15 nM	25.1 nM	CC1(C)OC[C@H](NC(=O)Nc2ccc(Cl)cc2Cl)[C@H](c2ccccc2)O1 [Example 5, 1-(2,4-Dichloro-phenyl)-3-((4S,5S)-2,2-dimethyl-4-phenyl-[1,3]dioxan-5-yl)-urea]
6000 nM	–	COc1ccccc1NC(=O)N[C@H]1COC(C)(C)O[C@H]1c1ccccc1 [Example 37, 1-((4S,5S)-2,2-Dimethyl-4-phenyl-[1,3]dioxan-5-yl)-3-(2-methoxy-phenyl)-urea]
300 nM	–	CC1(C)OC[C@H](NC(=O)Nc2ccc(Cl)cc2)[C@H](c2ccccc2)O1 [Example 39, 1-(4-Chloro-phenyl)-3-((4S,5S)-2,2-dimethyl-4-phenyl-[1,3]dioxan-5-yl)-urea]
2900 nM	–	CC(C)c1ccccc1NC(=O)N[C@H]1COC(C)(C)O[C@H]1c1ccccc1 [Example 42, 1-((4S,5S)-2,2-Dimethyl-4-phenyl-[1,3]dioxan-5-yl)-3-(2-isopropyl-phenyl)-urea]
5000 nM	–	CC1(C)OC[C@H](NC(=O)Nc2c(Cl)cccc2Cl)[C@H](c2ccccc2)O1 [Example 43, 1-(2,6-Dichloro-phenyl)-3-((4S,5S)-2,2-dimethyl-4-phenyl-[1,3]dioxan-5-yl)-urea]
3800 nM	–	CC1(C)OC[C@H](NC(=O)Nc2cccc(Br)c2)[C@H](c2ccccc2)O1 [Example 44, 1-(3-Bromo-phenyl)-3-((4S,5S)-2,2-dimethyl-4-phenyl-[1,3]dioxan-5-yl)-urea]
6000 nM	–	CC1(C)OC[C@H](NC(=O)Nc2ccc(F)cc2F)[C@H](c2ccccc2)O1 [Example 45, 1-(2,4-Difluoro-phenyl)-3-((4S,5S)-2,2-dimethyl-4-phenyl-[1,3]dioxan-5-yl)-urea]
2000 nM	–	CC1(C)OC[C@H](NC(=O)Nc2cccc(Cl)c2)[C@H](c2ccccc2)O1 [Example 46, 1-(3-Chloro-phenyl)-3-((4S,5S)-2,2-dimethyl-4-phenyl-[1,3]dioxan-5-yl)-urea]

Further lines, the compound ahead of its results:

SMILES	Ki (orexin-2 receptor)	Kb [1]
CC1(C)OC[C@H](NC(=O)Nc2ccc(Br)cc2Cl)[C@H](c2ccccc2)O1 [Example 1, 1-(4-Bromo-2-chloro-phenyl)-3-((4S,5S)-2,2-dimethyl-4-phenyl-[1,3]dioxan-5-yl)-urea]	9 nM	25.1 nM
CC1(C)OC[C@H](NC(=O)Nc2ccc(Br)cc2Br)[C@H](c2ccccc2)O1 [Example 4, 1-(2,4-Dibromo-phenyl)-3-((4S,5S)-2,2-dimethyl-4-phenyl-[1,3]dioxan-5-yl)-urea]	10 nM	5.01 nM
Cc1ccc(NC(=O)N[C@H]2COC(C)(C)O[C@H]2c2ccccc2)c(Br)c1 [Example 12, 1-(2-Bromo-4-methyl-phenyl)-3-((4S,5S)-2,2-dimethyl-4-phenyl-[1,3]dioxan-5-yl)-urea]	5 nM	6.31 nM
CC1(C)OC[C@H](NC(=O)Nc2ccc(-c3cccnc3)cc2)[C@H](c2ccccc2)O1 [Example 38, 1-((4S,5S)-2,2-Dimethyl-4-phenyl-[1,3]dioxan-5-yl)-3-(4-pyridin-3-yl-phenyl)-urea]	320 nM	–
COC(=O)c1ccccc1NC(=O)N[C@H]1COC(C)(C)O[C@H]1c1ccccc1 [Example 40, 2-[3-((4S,5S)-2,2-Dimethyl-4-phenyl-[1,3]dioxan-5-yl)-ureido]-benzoic acid methyl ester]	1200 nM	–
CC1(C)OC[C@H](NC(=O)Nc2ccccc2C(=O)O)[C@H](c2ccccc2)O1 [Example 41, 2-[3-((4S,5S)-2,2-Dimethyl-4-phenyl-[1,3]dioxan-5-yl)-ureido]-benzoic acid]	710 nM	–
